Our source for the melting point values is a melting point compilation (Tetko et al.; mined from patent text by program, amines drawn as free bases though some values may be those of a salt).

Molecules are shown by their SMILES.

Regarding `COc1nc(C)nc(C(F)(F)F)c1I`, the melting point is 44 to 45 °C.

In the case of `O=C(O)CCCc1nc(NCc2ccc3c(c2)OCO3)c2cc(Cl)sc2n1`, the melting point stood at 112 °C.

In turn, `CN(C(=O)OC(C)(C)C)C1CCN(CC2(C)Cn3cc([N+](=O)[O-])nc3O2)CC1` (centres undefined) had a melting point of 199 to 201 °C.

`CC(C)c1nccn1-c1ccc([N+](=O)[O-])cc1SC(Cl)(Cl)Cl`: the melting point amounted to 135 °C.

Consider `CC1(C)CCOc2c(C(O)C#Cc3ccc(C(=O)O)c(O)c3)cccc21` (centres undefined), for which the melting point was in the range of 225 to 227 °C.

Turning to `CC(O)(CO)c1cccc(OCc2ccc3ccccc3c2)c1` (single isomer, unassigned; (-)), the melting point lay within 104 to 106 °C.

In turn, `O=C1Nc2cc(Cl)ccc2C1c1ncnc2nn(C3CCCCC3)cc12` (centres undefined) gave a melting point of 299 to 303 °C.

The molecule `C=CC(=O)N(C1CC(C)(C)NC(C)(C)C1)C1CC(C)(C)NC(C)(C)C1` registered a melting point of 115 to 118 °C.

`CSc1nnc(-c2cc3c([nH]c2=O)CCN(Cc2ccccc2)C3)o1` yielded a melting point of 215 to 217 °C.

Regarding `CCCc1c(C(=O)C(C)C)c2ccc(C(=O)OC)cc2n1Cc1ccccc1OC`, the melting point fell in the range of 103 to 105 °C.

With `O=C1Nc2ccccc2N(C(=O)N2CCCC(CCN3CCCCC3)C2)c2ncccc21` (centres undefined), the melting point fell in the range of 168 to 169 °C.

The molecule `CCN(CC)CCCN1C(=S)c2cccc3cccc1c23` showed a melting point of 128 °C.

`O=c1c(CO)cc(-c2ccc3c(c2)CCO3)nn1CC=Cc1ccc(Cl)cc1` had a melting point of 131 to 141 °C.

As for `COC(=O)C(CCC(C(=O)OC)c1cc(OC)c(OC)c(OC)c1)c1cc(OC)c(OC)c(OC)c1` (centres undefined), the melting point fell in the range of 179 to 184 °C.

Consider `Cc1nc(N2CCN(Cc3ccccc3)C2=NC#N)sc1C(=O)NCc1ccccc1`, for which the melting point lay in the range of 226 to 228 °C.

Consider `COC(=O)C=Cc1ccc(OCCn2c(=O)sc3cc(C(=O)c4ccccc4)ccc32)cc1`, for which the melting point fell in the range of 144 to 146 °C.

Molecule `CCc1cn(C2CC(O)C(CNC(=O)Cc3ccccc3Br)O2)c(=O)nc1N` (centres undefined) had a melting point of 236 to 237 °C.

As to `CCn1ccnc1S(N)(=O)=O`, the melting point fell in the range of 123 to 125 °C.

In the case of `CCC1(CC)C(=O)N(C(C)(C)C)CC(C)(C)N1OC(=O)Nc1ccccc1`, the melting point lay in the range of 160 to 163 °C.

For the molecule `O=C(O)C[C@@H](Cc1ccccc1)C(=O)OCc1ccccc1`, the melting point was in the range of 48 to 52 °C.

As to `O=C(O)C1=Cc2cc(Oc3ccc(C(F)(F)F)cc3)ccc2OC1C(F)(F)F` (centres undefined), the melting point came out at 154 °C.

For the molecule `CCCCc1nn(-c2ccccc2C(F)(F)F)c(=O)n1Cc1ccc(-c2ccccc2S(=O)(=O)NC(C)(C)C)cc1`, the melting point was 168 to 170 °C.

Consider `CCc1nc([C@@H]2C[C@H]2c2nc3ccccc3n2C)cc(-n2nc(C)nc2C)n1` (relative stereo), for which the melting point lay in the range of 158 to 160 °C.

On to `O=[N+]([O-])c1ccc(C2NCCc3c2[nH]c2ccccc32)cc1` (centres undefined), for which the melting point turned out to be 190 °C.

As to `CSc1ccc(/C=C/C2=CC(=O)C(C)(C)O2)cc1`, the melting point fell in the range of 98 to 99.5 °C.

Regarding `CCCN1CCc2[nH]c3ccc4sccc4c3c2C1`, the melting point lay in the range of 143 to 144 °C.

Consider `S=c1[nH]ccn1CCCc1cccs1`, for which the melting point was in the range of 94 to 96.5 °C.

In turn, `CC(=O)NCCC1Nc2ccccc2N2CCc3cccc1c32` (centres undefined) came in with a melting point of 196 to 198 °C.

In turn, `O=c1[nH]c2ccccc2c(=O)n1C1CCN(Cc2ccccc2)CC1` displayed a melting point of 223 °C.

Consider `NC(=O)CNC(=O)c1cccc(-c2cccc3cc(Cc4cccc(CO)c4)sc23)c1`, for which the melting point lay within 155 to 156 °C.

The molecule `COCc1ncnc(Cl)c1C` registered a melting point of 37 to 38 °C.

`CC(C)C(CN(C)c1ccccc1)NS(=O)(=O)c1c(Cl)cc(Cl)cc1Cl` (centres undefined) came in with a melting point of 169 to 170 °C.

`O=C(O)[C@H](CCc1ccccc1)Oc1ccc(-c2ccco2)cc1` came in with a melting point of 140 to 142 °C.

As for `Cn1c(-c2ccc(-n3ccnc3)cc2)cnc1[C@H](Cc1ccccn1)N(C=O)c1cc2cc(Cl)ccc2o1`, the melting point was in the range of 63 to 73 °C.
